“And” between values parts separate entries of the source, which are not always exact repeats. Equal values may be shown once.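 A five-concentration, 48-hour dose response in 96-well plates underlies each endpoint, interpolated linearly between surrounding concentrations. Here, GI50 denotes the concentration required for 50% inhibition of growth. TGI denotes the concentration required for complete inhibition of growth.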

Among the test systems are MALME-3M melanoma; SF-295 CNS; NCI-H226 lung; HL-60(TB) leukemia; SK-MEL-5 melanoma; NCI-H522 lung; OVCAR-4 ovarian; SK-OV-3 ovarian; A498 renal; M14 melanoma.
Common to all, as to assay: NCI anticancer screen, dose series, 48 h

As for `O=C(NC(Cc1ccccc1)C(=O)CCl)OCc1ccccc1` (stereo not drawn), the GI50 in the assay with MALME-3M melanoma was 1.93 µM; with NCI-H226 lung, 13.4 µM; in the assay on HL-60(TB) leukemia, 14.3 µM; in the assay on SK-MEL-5 melanoma, 4.38 µM; in the assay on NCI-H522 lung, 1.36 µM; in the assay on OVCAR-4 ovarian, 2.04 µM. Moreover, the GI50 is 11.9 µM with SK-OV-3 ovarian, 10.2 µM in the assay with A498 renal and 4.69 µM in the assay with M14 melanoma. The TGI was 6.7 µM and 23.8 µM in the assay on MALME-3M melanoma; 33 µM and 29.2 µM in the assay with SF-295 CNS; 55.5 µM in the assay on NCI-H226 lung; 43.1 µM and 13.4 µM in the assay on HL-60(TB) leukemia; 16.9 µM and 26.4 µM in the assay with SK-MEL-5 melanoma; 3.43 µM and 4.31 µM with NCI-H522 lung. Also, the TGI in the assay on OVCAR-4 ovarian was 13.5 µM; in the assay with SK-OV-3 ovarian, 29.7 µM and 27.6 µM; with A498 renal it was 23 µM and 27.6 µM; in the assay with M14 melanoma, 19.2 µM and 23 µM.

For `[Au+].c1c[n-]cn1.c1ccc([PH+](c2ccccc2)c2ccccc2)cc1`, the GI50 is 1.96 µM in the assay with MALME-3M melanoma; 11.8 µM in the assay on SF-295 CNS; 12.8 µM with NCI-H226 lung; 1.66 µM in the assay with HL-60(TB) leukemia; 3.08 µM in the assay with SK-MEL-5 melanoma; 1.19 µM with NCI-H522 lung. Also, the GI50 in the assay on OVCAR-4 ovarian was 13.4 µM; with SK-OV-3 ovarian, 16.8 µM; in the assay with A498 renal, 17.4 µM; in the assay on M14 melanoma, 2.34 µM. The TGI in the assay on MALME-3M melanoma amounted to 4.25 µM; in the assay with SF-295 CNS, 26.6 µM; in the assay with NCI-H226 lung, 51.3 µM; in the assay on HL-60(TB) leukemia, 4.81 µM; with SK-MEL-5 melanoma, 14.4 µM; in the assay on NCI-H522 lung, 2.93 µM. In addition, the TGI in the assay on OVCAR-4 ovarian is 36.7 µM; in the assay with SK-OV-3 ovarian, 30.4 µM; in the assay with A498 renal, 34.9 µM; in the assay on M14 melanoma, 6.73 µM.

Take `O=C(Nc1nc(-c2ccccc2Cl)cs1)c1cc(-c2ccc(Cl)cc2)nc2ccc(Cl)cc12`: the GI50 in the assay with MALME-3M melanoma was 4.77 µM; in the assay with SF-295 CNS it was 3.16 µM; in the assay on NCI-H226 lung, 2.32 µM; in the assay with SK-MEL-5 melanoma it was 2.51 µM; in the assay on NCI-H522 lung it was 3.48 µM; in the assay with OVCAR-4 ovarian, 9.92 µM. Further, the GI50 is 26 µM with SK-OV-3 ovarian, 27.4 µM with A498 renal and 0.918 µM in the assay on M14 melanoma. Besides, the TGI was 47.7 µM with MALME-3M melanoma; 23.3 µM in the assay on SF-295 CNS; 8.54 µM in the assay with NCI-H226 lung; 9.07 µM in the assay on SK-MEL-5 melanoma; 42.6 µM in the assay on NCI-H522 lung; above 100 µM in the assay on OVCAR-4 ovarian. Also, the TGI was above 100 µM in the assay with SK-OV-3 ovarian, above 100 µM with A498 renal and 4.76 µM in the assay on M14 melanoma.

Take `CC(C)(N)C(=O)N[C@@H]1C(=O)N2[C@@H]1SC(C)(C)[C@@H]2C(=O)O`: the TGI in the assay on MALME-3M melanoma, in the assay with SF-295 CNS, in the assay on NCI-H226 lung, in the assay on SK-MEL-5 melanoma, with NCI-H522 lung and with OVCAR-4 ovarian was above 100 µM each time. The TGI in the assay with SK-OV-3 ovarian, in the assay on A498 renal and in the assay on M14 melanoma was above 100 µM throughout.

`CCC1OC(=O)CC(O)C(C)C(OC2OC(C)CC(N(C)C)C2O)C(CC=O)CC(C)C(=O)/C=C/C2(C)OC2C1C` (stereo not drawn): the TGI with MALME-3M melanoma is 64.9 µM; in the assay with SF-295 CNS it was 77.1 µM; in the assay on NCI-H226 lung, 49.6 µM; in the assay with HL-60(TB) leukemia, 32.4 µM; in the assay on SK-MEL-5 melanoma, 29.3 µM; in the assay with NCI-H522 lung, 54.9 µM. In addition, the values for the TGI in the assay on SK-OV-3 ovarian, in the assay with A498 renal and with M14 melanoma were 78.9 µM, 71.8 µM and above 100 µM, respectively.

Regarding `O=C(O)C1C2CCC(O2)C1C(=O)NCc1cccnc1` (stereo not drawn), the TGI in the assay on MALME-3M melanoma, with SF-295 CNS, in the assay with SK-MEL-5 melanoma, with NCI-H522 lung, with OVCAR-4 ovarian and in the assay with SK-OV-3 ovarian was above 100 µM throughout. Moreover, the TGI in the assay with A498 renal and in the assay on M14 melanoma was above 100 µM throughout.

Consider `CCOC(=O)CP(=S)(S)c1ccccc1` (stereo not drawn), for which the TGI with MALME-3M melanoma, with NCI-H226 lung, in the assay on HL-60(TB) leukemia, with SK-MEL-5 melanoma, in the assay on NCI-H522 lung and in the assay with OVCAR-4 ovarian was above 100 µM in each case. For the same molecule, the TGI in the assay with SK-OV-3 ovarian and with A498 renal was above 100 µM each time.

As for `CCN(CC)CCNC(=O)C(Cl)=C1C(Cl)=C(Cl)C(Cl)=C1Cl`, the GI50 was 11.9 µM with MALME-3M melanoma; 5.39 µM in the assay on SF-295 CNS; 4.08 µM in the assay with NCI-H226 lung; 3.35 µM with HL-60(TB) leukemia; 2.98 µM in the assay with SK-MEL-5 melanoma; 1.47 µM with NCI-H522 lung. Besides, the results for the GI50 in the assay with OVCAR-4 ovarian, in the assay on SK-OV-3 ovarian and in the assay on A498 renal were 4.17 µM, 3.21 µM and 2.59 µM, respectively. Besides, the TGI came out at 47.3 µM in the assay on MALME-3M melanoma; 29.3 µM in the assay on SF-295 CNS; 35.8 µM in the assay with NCI-H226 lung; 7.06 µM in the assay on HL-60(TB) leukemia; 11.1 µM in the assay on SK-MEL-5 melanoma; 3.21 µM with NCI-H522 lung. Also, the TGI with OVCAR-4 ovarian is 15.6 µM; in the assay with SK-OV-3 ovarian, above 100 µM; in the assay on A498 renal, 12.5 µM.

With `C1C[S][Ge]2([S]CCS1)[S]CCSCC[S]2`, the GI50 with MALME-3M melanoma, with NCI-H226 lung, in the assay with HL-60(TB) leukemia, in the assay with NCI-H522 lung, in the assay on OVCAR-4 ovarian and with SK-OV-3 ovarian was above 100 µM each time. The GI50 in the assay with A498 renal and in the assay on M14 melanoma was above 100 µM each time. Besides, the TGI in the assay with MALME-3M melanoma, in the assay with NCI-H226 lung, in the assay on HL-60(TB) leukemia, in the assay on NCI-H522 lung, in the assay with OVCAR-4 ovarian and in the assay with SK-OV-3 ovarian was above 100 µM in each case. Moreover, the TGI with A498 renal and in the assay on M14 melanoma was above 100 µM each time.

`CCOC(=O)Cn1c(=O)[nH]c(=O)c2[nH]cnc21`: the TGI with MALME-3M melanoma, with HL-60(TB) leukemia, in the assay with SK-MEL-5 melanoma, with NCI-H522 lung, with OVCAR-4 ovarian and in the assay on SK-OV-3 ovarian was above 100 µM in each case. Moreover, the TGI in the assay on A498 renal and with M14 melanoma was above 100 µM throughout.

For the origin of these results see PubChem BioAssay (NCI).
